# Reference: article PMC6934184, “Selective DNA-PKcs inhibition extends the therapeutic index of localized radiotherapy and chemotherapy” (The Journal of Clinical Investigation, 2019)
# Molecular target: T1, MAP3K9 (MLK1) (Homo sapiens, UniProt P80192)
# T1 construct: purchased Thermo Fisher Scientific (Life Technologies) SelectScreen
# Experiment: SelectScreen Z'LYTE
# Type: biochemical
# Method in brief: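 Percent values come from Thermo SelectScreen profiling of NU5455, combining activity and binding assays. CSF1R was run in Z'LYTE format at Km app ATP, and CAMK1 in Adapta format with ATP listed at 10.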
# T1 sequence (P80192 whole entry): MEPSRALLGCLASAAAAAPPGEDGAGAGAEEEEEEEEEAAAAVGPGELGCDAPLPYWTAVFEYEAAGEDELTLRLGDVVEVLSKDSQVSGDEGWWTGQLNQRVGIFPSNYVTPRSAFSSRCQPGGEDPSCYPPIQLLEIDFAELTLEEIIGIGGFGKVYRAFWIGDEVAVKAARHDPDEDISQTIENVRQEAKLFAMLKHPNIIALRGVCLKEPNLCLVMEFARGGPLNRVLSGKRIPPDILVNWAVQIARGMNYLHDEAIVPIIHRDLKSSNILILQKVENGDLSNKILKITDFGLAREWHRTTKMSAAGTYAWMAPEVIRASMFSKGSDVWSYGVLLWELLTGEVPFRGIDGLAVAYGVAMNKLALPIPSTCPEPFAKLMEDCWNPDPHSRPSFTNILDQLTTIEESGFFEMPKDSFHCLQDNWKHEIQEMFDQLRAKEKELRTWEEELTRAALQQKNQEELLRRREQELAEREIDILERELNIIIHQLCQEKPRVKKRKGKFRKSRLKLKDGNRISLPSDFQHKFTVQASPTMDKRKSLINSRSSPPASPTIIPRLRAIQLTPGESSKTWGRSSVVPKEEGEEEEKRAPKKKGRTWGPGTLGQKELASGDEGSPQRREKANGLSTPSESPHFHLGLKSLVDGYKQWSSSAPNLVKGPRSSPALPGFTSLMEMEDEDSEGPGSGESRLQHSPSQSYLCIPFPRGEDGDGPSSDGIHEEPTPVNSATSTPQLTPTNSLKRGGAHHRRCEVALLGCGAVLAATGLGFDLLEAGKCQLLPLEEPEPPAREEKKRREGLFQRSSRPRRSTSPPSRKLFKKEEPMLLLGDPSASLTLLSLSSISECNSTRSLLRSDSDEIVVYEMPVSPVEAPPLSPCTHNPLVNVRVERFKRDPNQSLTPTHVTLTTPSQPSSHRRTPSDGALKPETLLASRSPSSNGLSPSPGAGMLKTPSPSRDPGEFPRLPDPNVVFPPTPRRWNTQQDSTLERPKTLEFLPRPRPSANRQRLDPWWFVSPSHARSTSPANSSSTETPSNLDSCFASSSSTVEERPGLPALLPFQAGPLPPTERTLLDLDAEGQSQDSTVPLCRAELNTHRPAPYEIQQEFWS
smiles,measurement,value
CN(C(=O)CN1CCOCC1)c1ccc2sc3c(-c4cccc5c(=O)cc(N6CC7CCC(C6)O7)oc45)cccc3c2c1 [NU5455],inhibition at 1 µM,-0.5%
